ChEMBL document CHEMBL3046917, “Antimicrobial evaluation of 4-methylsulfanyl benzylidene/3-hydroxy benzylidene hydrazides and QSAR studies” (2012)
Values after ≈ are worked out from the molar mass of the structure shown.

Assays:
Type in all cases: functional
Aspergillus niger [1] = assay: Ratio of MFC to MIC for Aspergillus niger MTCC 8189
Candida albicans [2] = assay: Ratio of MFC to MIC for Candida albicans MTCC 227
Escherichia coli [3] = assay: Ratio of MBC to MIC for Escherichia coli MTCC 1652
Bacillus subtilis [4] = assay: Ratio of MBC to MIC for Bacillus subtilis MTCC 2063
Staphylococcus aureus [5] = assay: Ratio of MBC to MIC for Staphylococcus aureus MTCC 2901
Aspergillus niger [6] = assay: Fungicidal activity against Aspergillus niger MTCC 8189
Candida albicans [7] = assay: Fungicidal activity against Candida albicans MTCC 227
Escherichia coli [8] = assay: Bactericidal activity against Escherichia coli MTCC 1652
Bacillus subtilis [9] = assay: Bactericidal activity against Bacillus subtilis MTCC 2063
Staphylococcus aureus [10] = assay: Bactericidal activity against Staphylococcus aureus MTCC 2901
Candida albicans [11] = assay: Fungistatic activity against Candida albicans MTCC 227 after 48 hr by tube dilution method
Aspergillus niger [12] = assay: Fungistatic activity against Aspergillus niger MTCC 8189 after 7 days by tube dilution method
Escherichia coli [13] = assay: Bacteriostatic activity against Escherichia coli MTCC 1652 after 24 hr by tube dilution method
Staphylococcus aureus [14] = assay: Bacteriostatic activity against Staphylococcus aureus MTCC 2901 after 24 hr by tube dilution method
Bacillus subtilis [15] = assay: Bacteriostatic activity against Bacillus subtilis MTCC 2063 after 24 hr by tube dilution method

Row | Structure (SMILES) | Ratio (Aspergillus niger [1]) | Ratio (Candida albicans [2]) | Ratio (Escherichia coli [3]) | Ratio (Bacillus subtilis [4]) | Ratio (Staphylococcus aureus [5]) | MFC (Aspergillus niger [6]) [µM] | MFC (Candida albicans [7]) [µM] | MBC (Escherichia coli [8]) [µM] | MBC (Bacillus subtilis [9]) [µM] | MBC (Staphylococcus aureus [10]) [µM] | -logMIC (Candida albicans [11]) | -logMIC (Aspergillus niger [12]) | -logMIC (Escherichia coli [13]) | -logMIC (Staphylococcus aureus [14]) | -logMIC (Bacillus subtilis [15])
1 | CCCCCCCCCCCCCC(=O)N/N=C/c1ccc(SC)cc1 | 3 | 3 | 3 | 3 | 3 | > 132 | > 132 | > 132 | 33 (≈ 12.4 µg/mL) | > 132 | 0.58 | 1.7 | 1.48 | 0.58 | 2.08
2 | O=C(/C=C/c1ccccc1)N/N=C/c1cccc(O)c1 | 3 | 3 | 3 | 3 | 3 | 93 (≈ 24.8 µg/mL) | 93 (≈ 24.8 µg/mL) | 46 (≈ 12.2 µg/mL) | 46 (≈ 12.2 µg/mL) | 46 (≈ 12.2 µg/mL) | 1.93 | 1.93 | 1.32 | 1.7 | 1.93
3 | OC(Cn1cncn1)(Cn1cncn1)c1ccc(F)cc1F [FLUCONAZOLE] |  |  |  |  |  | 40 (≈ 12.3 µg/mL) | 40 (≈ 12.3 µg/mL) |  |  |  | 2.64 | 2.64 |  |  | 
4 | CCCCCCCCCCCCCCCC(=O)N/N=C/c1ccc(SC)cc1 | 3 | 3 | 3 | 3 | 3 | > 122 | > 122 | 61 (≈ 24.7 µg/mL) | 61 (≈ 24.7 µg/mL) | > 122 | 0.61 | 0.61 | 1.81 | 1.21 | 2.11
5 | CCCCCCCCCCCCCCCCCC(=O)N/N=C/c1ccc(SC)cc1 | 3 | 3 | 3 | 3 | 3 | 115 (≈ 49.8 µg/mL) | > 115 | 28 (≈ 12.1 µg/mL) | > 115 | > 115 | 0.7 | 0.7 | 1.65 | 0.94 | 0.64
6 | CSc1ccc(/C=N/NC(=O)c2ccc(C)cc2)cc1 | 3 | 3 | 3 | 3 | 3 | 88 (≈ 25 µg/mL) | 88 (≈ 25 µg/mL) | 88 (≈ 25 µg/mL) | 44 (≈ 12.5 µg/mL) | > 176 | 1.96 | 1.66 | 1.96 | 1.66 | 1.96
7 | COc1ccc(C(=O)N/N=C/c2ccc(SC)cc2)cc1OC | 3 | 3 | 3 | 3 | 3 | > 151 | > 151 | > 151 | > 151 | 37 (≈ 12.2 µg/mL) | 1.42 | 1.59 | 1.7 | 1.72 | 1.42
8 | CCCCCCCCCCCCCCCCCC(=O)N/N=C/c1cccc(O)c1 | 3 | 3 | 3 | 3 | 3 | > 124 | > 124 | > 124 | 124 (≈ 49.9 µg/mL) | > 124 | 0.6 | 1.51 | 1.3 | 1.1 | 1.51
9 | CSc1ccc(/C=N/NC(=O)c2cc([N+](=O)[O-])cc([N+](=O)[O-])c2)cc1 | 3 | 3 | 3 | 3 | 3 | 69 (≈ 24.9 µg/mL) | > 138 | 8 (≈ 2.88 µg/mL) | 69 (≈ 24.9 µg/mL) | 69 (≈ 24.9 µg/mL) | 0.86 | 2.06 | 2.06 | 1.46 | 2.06
10 | CCCCCCCCCCCCCCCC(=O)N/N=C/c1cccc(O)c1 | 3 | 3 | 3 | 3 | 3 | > 133 | > 133 | > 133 | 133 (≈ 49.8 µg/mL) | > 133 | 0.57 | 1.2 | 1.13 | 0.99 | 1.78
11 | O=C(O)c1cn(C2CC2)c2cc(N3CCNCC3)c(F)cc2c1=O [CIPROFLOXACIN] |  |  |  |  |  |  |  | 19 (≈ 6.3 µg/mL) | 19 (≈ 6.3 µg/mL) | 19 (≈ 6.3 µg/mL) |  |  | 2.61 | 2.61 | 2.61
12 | CCCCCCCCCCCC(=O)N/N=C/c1ccc(SC)cc1 | 3 | 3 | 3 | 3 | 3 | 71 (≈ 24.7 µg/mL) | > 142 | > 142 | > 142 | > 142 | 1.66 | 1.25 | 1.3 | 1.3 | 1.45
13 | C/C=C/C=C/C(=O)N/N=C/c1ccc(SC)cc1 | 3 | 3 | 3 | 3 | 3 | 96 (≈ 25 µg/mL) | > 192 | > 192 | > 192 | 192 (≈ 50 µg/mL) | 1.32 | 1.32 | 1.32 | 1.02 | 0.72
14 | C/C=C/C=C/C(=O)N/N=C/c1cccc(O)c1 | 3 | 3 | 3 | 3 | 3 | 217 (≈ 50 µg/mL) | 217 (≈ 50 µg/mL) | > 217 | 217 (≈ 50 µg/mL) | > 217 | 1.41 | 1.27 | 1.27 | 0.96 | 1.27
15 | CCCCCCCCCCCC(=O)N/N=C/c1cccc(O)c1 | 3 | 3 | 3 | 3 | 3 | 78 (≈ 24.8 µg/mL) | 157 (≈ 50 µg/mL) | 157 (≈ 50 µg/mL) | 157 (≈ 50 µg/mL) | > 157 | 1.1 | 1.71 | 0.98 | 0.98 | 0.8
16 | CSc1ccc(/C=N/NC(=O)c2cccc(C)c2)cc1 | 3 | 3 | 3 | 3 | 3 | 88 (≈ 25 µg/mL) | 176 (≈ 50.1 µg/mL) | 176 (≈ 50.1 µg/mL) | > 176 | > 176 | 1.67 | 1.7 | 1.66 | 1.55 | 1.06
17 | CSc1ccc(/C=N/NC(=O)/C=C/c2ccccc2)cc1 | 3 | 3 | 3 | 3 | 3 | > 168 | 84 (≈ 24.9 µg/mL) | 168 (≈ 49.8 µg/mL) | > 168 | > 168 | 1.37 | 1.37 | 1.68 | 1.68 | 1.68
18 | O=C(N/N=C/c1cccc(O)c1)c1cc([N+](=O)[O-])cc([N+](=O)[O-])c1 | 3 | 3 | 3 | 3 | 3 | 37 (≈ 12.2 µg/mL) | > 151 | > 151 | > 151 | > 151 | 1.42 | 2.02 | 1.42 | 1.12 | 1.42
19 | CCCCCCCCCCCCCC(=O)N/N=C/c1cccc(O)c1 | 3 | 3 | 3 | 3 | 3 | > 144 | > 144 | > 144 | 144 (≈ 49.9 µg/mL) | > 144 | 0.54 | 1.2 | 0.94 | 0.94 | 2.04
20 | COc1ccc(C(=O)N/N=C/c2cccc(O)c2)cc1OC | 3 | 3 | 3 | 3 | 3 | 41 (≈ 12.3 µg/mL) | 83 (≈ 24.9 µg/mL) | > 166 | > 166 | 83 (≈ 24.9 µg/mL) | 1.98 | 1.98 | 1.38 | 1.98 | 1.38
